Results reported in the supplement of paper PMC10307832.

Experiments:
Experiment in all cases: relative viability (nuclei count vs DMSO), 5 days (fraction); higher = more cells survive
BAM7 + Linsitinib = compound: CCOC1=CC=CC=C1N=NC2=C(NN(C2=O)C3=NC(=CS3)C4=CC=CC=C4)C [BAM7] + C[C@]1(O)C[C@@H](c2nc(-c3ccc4ccc(-c5ccccc5)nc4c3)c3c(N)nccn32)C1 [Linsitinib] (partner 1 µM)
Summary of the method: (§1)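 Dosing by pin tool came one day after lung cancer cell lines were seeded in 1536-well plates, using either one drug or a fixed anchor-drug dose plus five library-drug doses (not always all listed) in √10 steps. After 5 days, nuclei were counted on 4× images. Relative viability is treated-well nuclei count divided by vehicle-well nuclei count, and values are medians of duplicate plates.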

BAM7 + Dasatinib = compound: CCOC1=CC=CC=C1N=NC2=C(NN(C2=O)C3=NC(=CS3)C4=CC=CC=C4)C [BAM7] + Cc1nc(Nc2ncc(C(=O)Nc3c(C)cccc3Cl)s2)cc(N2CCN(CCO)CC2)n1 [Dasatinib] (partner 0.075 µM)
Summary of the method: as §1

BAM7 + Pemetrexed = compound: CCOC1=CC=CC=C1N=NC2=C(NN(C2=O)C3=NC(=CS3)C4=CC=CC=C4)C [BAM7] + Nc1nc2[nH]cc(CCc3ccc(C(=O)N[C@@H](CCC(=O)O)C(=O)O)cc3)c2c(=O)[nH]1 [Pemetrexed] (partner 0.2 µM)
Summary of the method: as §1

[1] = compound: CCn1c(-c2nonc2N)nc2c(C#CC(C)(C)O)ncc(OC[C@H]3CCCNC3)c21 + CS(=O)(=O)CCNCc1ccc(-c2ccc3ncnc(Nc4ccc(OCc5cccc(F)c5)c(Cl)c4)c3c2)o1 [Lapatinib] (partner 2 µM)
Summary of the method: as §1

Cell Line | relative viability (BAM7 + Linsitinib; first compound 0.5 µM) | relative viability (BAM7 + Linsitinib; first compound 5 µM) | relative viability (BAM7 + Linsitinib; first compound 15.81 µM) | relative viability (BAM7 + Linsitinib; first compound 50 µM) | relative viability (BAM7 + Dasatinib; first compound 0.5 µM) | relative viability (BAM7 + Dasatinib; first compound 5 µM) | relative viability (BAM7 + Dasatinib; first compound 15.81 µM) | relative viability (BAM7 + Dasatinib; first compound 50 µM) | relative viability (BAM7 + Pemetrexed; first compound 0.5 µM) | relative viability (BAM7 + Pemetrexed; first compound 5 µM) | relative viability (BAM7 + Pemetrexed; first compound 15.81 µM) | relative viability (BAM7 + Pemetrexed; first compound 50 µM) | relative viability ([1]; first compound 0.01 µM) | relative viability ([1]; first compound 0.03162 µM) | relative viability ([1]; first compound 0.1 µM) | relative viability ([1]; first compound 0.3162 µM) | relative viability ([1]; first compound 1 µM)
NCI-H520 | 0.916 | 1.03 | 1.08 | 0.87 | 0.184 | 0.171 | 0.207 | 0.245 | 0.696 | 0.776 | 0.626 | 0.569 | 0.923 | 0.952 | 0.727 | 0.454 | 0.425
RERF-LC-KJ | 0.862 | 0.775 | 0.833 | 0.929 | 0.639 | 0.539 | 0.323 | 0.358 | 0.518 | 0.53 | 0.464 | 0.529 | 0.873 | 0.743 | 0.814 | 0.832 | 0.926
A-427 | 1.14 | 1.1 | 1.05 | 1.14 | 0.845 | 0.71 | 0.664 | 0.826 | 1.02 | 0.935 | 0.93 | 1.04 | 0.962 | 1.05 | 0.932 | 1.03 | 1.03
NCI-H1792 | 0.64 | 0.54 | 0.542 | 0.628 | 0.827 | 0.833 | 0.665 | 0.822 | 0.943 | 1.13 | 0.707 | 0.816 | 0.897 | 0.859 | 0.862 | 0.757 | 0.871
SK-LU-1 | 0.969 | 1.21 | 1.22 | 1.21 | 0.172 | 0.18 | 0.191 | 0.168 | 0.906 | 1.07 | 0.905 | 0.99 | 1.02 | 0.907 | 0.85 | 0.894 | 0.676
PC-3 [JPC-3] | 0.905 | 0.966 | 0.868 | 0.835 | 1.04 | 0.91 | 1.02 | 0.946 | 1.17 | 1.13 | 1.05 | 1.08 | 0.442 | 0.433 | 0.472 | 0.449 | 0.445
EMC-BAC-2 | 0.904 | 0.838 | 0.786 | 0.823 | 0.301 | 0.366 | 0.331 | 0.394 | 0.439 | 0.458 | 0.474 | 0.452 | 0.871 | 0.83 | 0.866 | 0.88 | 0.938
LK-2 | 0.675 | 0.708 | 0.629 | 0.59 | 0.242 | 0.299 | 0.255 | 0.447 | 0.277 | 0.249 | 0.32 | 0.266 | 0.998 | 1.01 | 0.668 | 0.697 | 0.926
NCI-H2126 | 0.7 | 0.63 | 0.706 | 0.704 | 0.584 | 0.484 | 0.436 | 0.526 | 0.746 | 0.672 | 0.574 | 0.641 | 0.779 | 0.773 | 0.641 | 0.731 | 0.755
NCI-H3122 | 0.969 | 1.08 | 1 | 1.02 | 0.438 | 0.835 | 0.838 | 0.725 | 0.194 | 0.191 | 0.196 | 0.195 | 0.959 | 1.04 | 1.05 | 1.13 | 1
NCI-H1975 | 0.847 | 0.981 | – | 0.898 | 0.309 | 0.341 | 0.3 | 0.296 | 0.292 | 0.276 | 0.269 | 0.288 | 0.828 | 0.975 | 0.927 | 0.799 | 0.728
NCI-H1944 | 1.3 | 1.36 | 1.13 | 1.07 | 0.217 | 0.234 | 0.225 | 0.279 | 0.581 | 0.541 | 0.512 | 0.512 | 0.767 | 0.825 | 0.751 | 0.773 | 0.819
LU99A | 0.565 | 0.542 | 0.491 | 0.6 | 0.661 | 0.642 | 0.577 | 0.476 | 0.146 | 0.18 | 0.173 | 0.198 | 0.874 | 1.07 | 0.869 | 0.865 | 0.818
SW 1573 | 0.838 | 0.742 | 0.819 | 0.896 | 0.575 | 0.65 | 0.454 | 0.431 | 0.843 | 0.822 | 0.801 | 0.823 | 1.1 | 1 | 1.02 | 0.869 | 0.946
NCI-H2347 | 0.983 | 1.18 | 0.971 | 0.982 | 0.303 | 0.345 | – | 0.339 | 0.426 | 0.424 | 0.422 | 0.415 | 0.891 | 0.934 | 0.995 | 0.897 | 0.889
NCI-H2009 | 1.27 | 1.2 | 1.15 | 1.16 | 0.291 | 0.283 | 0.265 | 0.275 | 1.03 | 1.06 | 1.03 | 1.01 | 0.974 | 1.03 | 1.05 | 1.02 | 0.905
HCC-15 | 0.914 | 0.905 | 0.859 | 0.853 | 0.594 | 0.574 | 0.617 | 0.565 | 0.225 | 0.216 | 0.22 | 0.227 | 0.868 | 0.824 | 0.865 | 0.808 | 0.795
COR-L23 | 0.979 | 0.989 | 0.852 | 0.852 | 0.476 | 0.481 | 0.385 | 0.502 | 0.209 | 0.182 | 0.193 | 0.206 | 0.935 | 0.994 | 0.985 | 0.916 | 1.05
HCC-78 | 0.544 | 0.393 | 0.376 | 0.585 | 0.502 | 0.276 | 0.424 | 0.306 | 0.929 | 0.913 | 0.963 | 0.863 | 0.717 | 0.673 | 0.903 | 0.547 | 0.301
